# From patent US20060183168A1, “Method for optimizing therapeutic efficacy of nemorubicin” (priority 2002, published 2006)
# Assays:
# CYP3A4/5 = assay: Antibody studies: inhibition of nemorubicin metabolism by human liver microsomes; assay type: in vitro ADME; conditions: nemorubicin 20 μM, NADPH 0.5 mM, 10 min at 37° C.
# Procedure: Human liver microsomes were preincubated at 25° C. for 5 min. with and without a monoclonal antibody anti-CYP3A4/5 (MAB-3A4 Genetest) in Tris 0.3M (pH 7.4) before adding nemorubicin (20 μM and NADPH (0.5 mM). After 10 min at 37° C., the amount of nemorubicin metabolites was evaluated by a HPLC system.
# (§1) High-performance liqid chromatographic (HPLC) system consisted of a Waters Model 510 isocratic pump equipped with autosampler. Detection was performed by a Perkin Elmer fluorescence spectrofotometer LS-5 set at 479 and 552 nm excitation and emission wavelength, respectively. Detector was connected to a Shimadzu C-R3A integrator. The cromatographic separation was performed on a Waters Simmetry C8 reverse phase column. The mobile phase was 10 mM KH2P4/Methanol/CH3CN (45:30:25). The flow rate was 1.5 ml/min. Standard curves of fluorescence versus drug concentration for nemorubicin and metabolites were used to calculate drug concentration in the samples.
# CYP3A4 = target: T1, CYP3A4 (Homo sapiens, UniProt P08684); assay: Metabolic potential of microsomes from cells expressing single human CYP 450 isoenzymes; assay type: in vitro ADME; conditions: 50 pmol CYP/ml, nemorubicin 20 μM, NADPH 0.5 mM, 37° C., 20 min; CYP3A4, CYP3A5, CYP1A2, CYP2E1, CYP2D61, CYP2C91, CYP2C8
# T1 construct: expressed in transfected cells
# T1 sequence (P08684 whole entry): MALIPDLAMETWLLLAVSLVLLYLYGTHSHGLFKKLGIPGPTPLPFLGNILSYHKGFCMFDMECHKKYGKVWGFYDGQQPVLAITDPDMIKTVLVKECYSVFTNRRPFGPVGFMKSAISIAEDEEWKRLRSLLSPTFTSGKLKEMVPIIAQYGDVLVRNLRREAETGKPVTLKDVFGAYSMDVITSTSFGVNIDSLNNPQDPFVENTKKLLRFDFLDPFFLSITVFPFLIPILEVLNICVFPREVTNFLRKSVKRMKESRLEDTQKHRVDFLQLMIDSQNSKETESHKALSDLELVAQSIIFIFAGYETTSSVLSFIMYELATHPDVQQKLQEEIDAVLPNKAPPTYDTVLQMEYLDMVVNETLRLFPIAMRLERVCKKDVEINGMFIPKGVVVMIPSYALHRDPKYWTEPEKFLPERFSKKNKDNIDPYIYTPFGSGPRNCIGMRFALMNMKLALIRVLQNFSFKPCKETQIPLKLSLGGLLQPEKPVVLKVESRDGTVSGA
# Procedure: Microsomes were obtained from cell cultures overexpressing CYP3A4, CYP3A5, CYP1A2, CYP2E1, CYP2D61, CYP2C91 and CYP2C8. Microsomes (50 pmol CYP/ml) were incubated with nemomubicin (20 μM) and NADPH (0.5 mM) in 0.3M Tris (pH 7.4) at 37° C. for 20 min. Nemorubicin metabolism was quantified by HPLC method.
# as §1
smiles,measurement,setting,value
COc1cccc2c1C(=O)c1c(O)c3c(c(O)c1C2=O)C[C@@](O)(C(=O)CO)C[C@@H]3O[C@H]1C[C@H](N2CCO[C@H](OC)C2)[C@H](O)[C@H](C)O1 [nemorubicin],isoenzyme responsible for nemorubicin metabolism (antibody inhibition),CYP3A4/5,only the CYP3A4 isoenzyme is responsible for the metabolism of nemorubicin
same,metabolism of nemorubicin by microsomes overexpressing single CYP isoenzymes,CYP3A4,Only microsomes from CYP3A4-overexpressing cells were able to metabolize nemorubicin
